Reference: the CheMixHub viscosity set

Test: xn = mol fraction of the nth substance listed

CCCCC(CC)COP(=O)(O)OCC(CC)CCCC (stereo not given) + CCCCCCCCO
viscosity [mPa·s], 101 kPa
Details | 303.15 K | 313.15 K | 323.15 K
x1 = 0.0433 | 6.599 | 4.84 | 3.531
x1 = 0.0469 | 6.819 | – | –
x1 = 0.073 | 6.889 | – | –
x1 = 0.0919 | 7.065 | 5.143 | 3.719
x1 = 0.1008 | 7.185 | – | –
x1 = 0.1474 | 7.624 | 5.504 | 3.942
x1 = 0.1532 | 7.958 | – | –
x1 = 0.2125 | 8.316 | 5.948 | 4.214
x1 = 0.276 | 9.907 | – | –
x1 = 0.288 | 9.17 | 6.493 | 4.545
x1 = 0.3227 | 10.59 | – | –
x1 = 0.377 | 10.25 | 7.177 | 4.957
x1 = 0.4481 | 12.38 | – | –
x1 = 0.4848 | 11.66 | 8.068 | 5.489
x1 = 0.5519 | 13.89 | – | –
x1 = 0.6176 | 13.58 | 9.263 | 6.195
x1 = 0.6183 | 14.78 | – | –
x1 = 0.7209 | 16.04 | – | –
x1 = 0.7843 | 16.27 | 10.92 | 7.162
x1 = 0.8137 | 17.09 | – | –
x1 = 0.922 | 18.4 | – | –

CCCCCCn1cc[n+](C)c1.F[P-](F)(F)(F)(F)F + CCCCCCn1cc[n+](C)c1.[Cl-]
viscosity [mPa·s], 101 kPa
Details | 303.15 K | 308.15 K | 313.15 K | 318.15 K | 323.15 K
x2 = 0.2 | 962.7 | 679 | 486.2 | 357.7 | –
x2 = 0.4 | – | – | 854.7 | 598.9 | 433.5
x2 = 0.6 | – | – | – | – | 705.5

CCCCC(CC)COP(=O)(O)OCC(CC)CCCC (stereo not given) + CCCCO
303.15 K, 101 kPa
Details | viscosity [mPa·s]
x1 = 0.0419 | 2.97
x1 = 0.0842 | 3.693
x1 = 0.1206 | 4.321
x1 = 0.2162 | 6.156
x1 = 0.3122 | 8.132
x1 = 0.4528 | 11.18
x1 = 0.5519 | 12.85
x1 = 0.6567 | 14.57
x1 = 0.761 | 16.12
x1 = 0.8628 | 17.52
x1 = 0.9345 | 18.4

C[N+](=O)[O-] + CCCCO
viscosity [mPa·s], 101 kPa
Details | 298.15 K | 303.15 K | 308.15 K | 313.15 K | 318.15 K | 323.15 K
x1 = 0.1 | – | 1.815 | 1.607 | 1.438 | 1.283 | 1.156
x1 = 0.1589 | 1.93 | – | – | – | – | –
x1 = 0.2 | – | 1.448 | 1.305 | 1.172 | 1.067 | 0.968
x1 = 0.299 | 1.499 | – | – | – | – | –
x1 = 0.2999 | – | 1.218 | 1.107 | 0.996 | 0.906 | 0.828
x1 = 0.4 | – | 1.052 | 0.955 | 0.868 | 0.8 | 0.73
x1 = 0.4222 | 1.172 | – | – | – | – | –
x1 = 0.5016 | – | 0.918 | 0.834 | 0.762 | 0.7 | 0.646
x1 = 0.5319 | 0.9681 | – | – | – | – | –
x1 = 0.6017 | – | 0.802 | 0.73 | 0.672 | 0.622 | 0.578
x1 = 0.6302 | 0.8288 | – | – | – | – | –
x1 = 0.6991 | – | 0.706 | 0.654 | 0.605 | 0.565 | 0.527
x1 = 0.7188 | 0.7435 | – | – | – | – | –
x1 = 0.7993 | 0.6894 | – | – | – | – | –
x1 = 0.8059 | – | 0.624 | 0.583 | 0.549 | 0.518 | 0.488
x1 = 0.8718 | 0.6557 | – | – | – | – | –
x1 = 0.903 | – | 0.586 | 0.553 | 0.524 | 0.499 | 0.474
x1 = 0.9387 | 0.6378 | – | – | – | – | –

O=Cc1ccco1 + CCCC[P+](C)(CCCC)CCCC.COS(=O)(=O)[O-]
viscosity [mPa·s], 100 kPa
Details | 293.15 K | 298.15 K | 303.15 K | 308.15 K | 313.15 K | 318.15 K | 323.15 K
x2 = 0.062 | 2.53 | – | – | – | – | – | –
x2 = 0.1 | 8.96 | 3.49 | 3.13 | 2.99 | 2.64 | 2.46 | –
x2 = 0.142 | – | – | 4.13 | 3.99 | 3.64 | 3.46 | –
x2 = 0.191 | 41.29 | – | – | 5.55 | 5.56 | 4.32 | 4.01
x2 = 0.249 | 64.53 | 30.58 | – | – | – | – | –
x2 = 0.317 | – | 46.54 | 24.83 | – | 8.79 | – | 6.01
x2 = 0.399 | – | 72.22 | 39.81 | – | – | 9.92 | –
x2 = 0.499 | – | – | – | 33.52 | – | – | –
x2 = 0.624 | 270.6 | – | – | 58.28 | – | 32.22 | 26.66
x2 = 0.732 | 396.3 | 265.6 | – | 133.5 | – | 81.46 | 73.46
x2 = 0.823 | 501.6 | 350.8 | 255.5 | – | – | 116.5 | 99.45
x2 = 0.863 | 555 | 392.6 | 287.1 | – | – | – | –
x2 = 0.91 | 614.7 | 435.6 | 319.2 | – | – | – | –
x2 = 0.951 | 664.4 | 475.8 | 351.2 | 265.8 | – | 158.5 | –

CCCCC(CC)COP(=O)(O)OCC(CC)CCCC (stereo not given) + CCCO
303.15 K, 101 kPa
Details | viscosity [mPa·s]
x1 = 0.0388 | 2.397
x1 = 0.0845 | 3.204
x1 = 0.1765 | 4.994
x1 = 0.2522 | 6.571
x1 = 0.3449 | 8.647
x1 = 0.4687 | 11.29
x1 = 0.6123 | 13.8
x1 = 0.7274 | 15.62
x1 = 0.8109 | 16.82
x1 = 0.9261 | 18.45

CCCCOC(=O)C(C)O (stereo not given) + CCCO
101 kPa, x1 = 0.8998
Details | viscosity [mPa·s]
303.15 K | 2.685
313.15 K | 2.075

C[N+](=O)[O-] + CCCO
viscosity [mPa·s]
Details | 293.15 K | 298.15 K | 303.15 K | 313.15 K
101 kPa, x1 = 0.1338 | – | 1.55 | – | –
101 kPa, x1 = 0.2584 | – | 1.24 | – | –
101 kPa, x1 = 0.3737 | – | 1.011 | – | –
101 kPa, x1 = 0.4815 | – | 0.8394 | – | –
101 kPa, x1 = 0.5819 | – | 0.7389 | – | –
101 kPa, x1 = 0.6764 | – | 0.6772 | – | –
101 kPa, x1 = 0.7649 | – | 0.6555 | – | –
101 kPa, x1 = 0.8479 | – | 0.6441 | – | –
101 kPa, x1 = 0.9262 | – | 0.6388 | – | –
101.33 kPa, x2 = 0.0501 | 0.636 | – | 0.565 | 0.508
101.33 kPa, x2 = 0.1001 | 0.633 | – | 0.56 | 0.501
101.33 kPa, x2 = 0.1501 | 0.64 | – | 0.563 | 0.502
101.33 kPa, x2 = 0.2 | 0.656 | – | 0.574 | 0.508
101.33 kPa, x2 = 0.25 | 0.681 | – | 0.591 | 0.519
101.33 kPa, x2 = 0.3001 | 0.713 | – | 0.612 | 0.534
101.33 kPa, x2 = 0.3501 | 0.753 | – | 0.639 | 0.553
101.33 kPa, x2 = 0.4001 | 0.795 | – | 0.67 | 0.576
101.33 kPa, x2 = 0.45 | 0.843 | – | 0.704 | 0.6
101.33 kPa, x2 = 0.5 | 0.892 | – | 0.74 | 0.629
101.33 kPa, x2 = 0.5501 | 0.949 | – | 0.785 | 0.661
101.33 kPa, x2 = 0.6001 | 1.01 | – | 0.832 | 0.697
101.33 kPa, x2 = 0.65 | 1.081 | – | 0.886 | 0.739
101.33 kPa, x2 = 0.7 | 1.162 | – | 0.95 | 0.789
101.33 kPa, x2 = 0.75 | 1.26 | – | 1.023 | 0.845
101.33 kPa, x2 = 0.8 | 1.375 | – | 1.112 | 0.912
101.33 kPa, x2 = 0.85 | 1.519 | – | 1.218 | 0.993
101.33 kPa, x2 = 0.9 | 1.693 | – | 1.349 | 1.094
101.33 kPa, x2 = 0.95 | 1.911 | – | 1.51 | 1.214

O=S(=O)([N-]S(=O)(=O)C(F)(F)F)C(F)(F)F.On1cc[n+](O)c1 + CCCO
100 kPa
Details | viscosity [mPa·s]
293.15 K, x1 = 0.3992 | 31.05
293.15 K, x1 = 0.5999 | 65.75
303.15 K, x1 = 0.7996 | 77.95
313.15 K, x1 = 0.4985 | 20.85
